4 molecules from ChEMBL document CHEMBL1629606, “In vitro and in vivo properties of ellagic acid in malaria treatment” (Antimicrob Agents Chemother, 2009) can be followed below.

The structures appear in SMILES notation. Calls of active or inactive are those of the source. The calls are words filed in the database; no cut-off is given here.

Series [1] relates to Plasmodium falciparum. Briefly: Antiplasmodial activity against […] Plasmodium falciparum Dd2 assessed as 50% revertant concentration required for mefloquine resistant. In kind it is functional.
The test system of series [2] is Plasmodium falciparum. Briefly: Antiplasmodial activity against Plasmodium falciparum F32. The class given is functional, organism-based.
For series [3], the system named is Plasmodium falciparum. Briefly: Antiplasmodial activity against Plasmodium falciparum Dd2. In kind it is functional, organism-based.
Series [4] has as its system Plasmodium falciparum. Briefly: Antiplasmodial activity against Plasmodium falciparum FcB1. In kind it is functional, organism-based. The note with it: FcB1/Columbia.
The test system of series [5] is Plasmodium falciparum. Briefly: Antiplasmodial activity against Plasmodium falciparum W2. The class given is functional, organism-based.
The test system of series [6] is Plasmodium falciparum. Briefly: Antiplasmodial activity against Plasmodium falciparum FcM29. The class given is functional, organism-based.
The next series deals with Vero. Briefly: Cytotoxicity against Vero cells at 100 uM by MTS assay. In kind it is cell-based. The note with it: chlorocebus sabaeus. On the technique in general: Tetrazolium assays rely on reduction of a dye to a coloured formazan, in cell work by metabolically active cells.
Another series has as its system MRC5. Briefly: Cytotoxicity against human MRC5 cells at 100 uM by MTS assay. In kind it is cell-based. The note with it: mrc5, 100 µM.
The test system of a further series is KB. Briefly: Cytotoxicity against human KB cells at 100 uM by MTS assay. The class given is cell-based.
Series [7] has as its system Plasmodium falciparum. Briefly: Antiplasmodial activity against chloroquine-resistant Plasmodium falciparum W2 in presence of chloroquine. In kind it is functional.
In series [8] the test system is Plasmodium vinckei petteri. Briefly: Antiplasmodial activity against Plasmodium vinckei petteri infected in Swiss mouse assessed as inhibition of parasite growth at 50 mg/kg/day, ip measured on day 4 postinfection. The note with it: 96 h, route intraperitoneal. In kind it is functional.
Series [9] concerns Plasmodium vinckei petteri. Briefly: Antiplasmodial activity against Plasmodium vinckei petteri infected in Swiss mouse assessed as inhibition of parasite growth at 100 mg/kg/day, ip measured on day 5 postinfection. In kind it is functional. Conditions: 120 h, route intraperitoneal.
Series [10] has as its system Plasmodium vinckei petteri. Briefly: Antiplasmodial activity against Plasmodium vinckei petteri infected in Swiss mouse assessed as inhibition of parasite growth at 1 mg/kg/day, po measured on day 4 postinfection. The class given is functional, organism-based.
In series [11] the test system is Plasmodium vinckei petteri. Briefly: Antiplasmodial activity against Plasmodium vinckei petteri infected in Swiss mouse assessed as inhibition of parasite growth at 50 mg/kg/day, po measured on day 4 postinfection. The class given is functional, organism-based.
For series [12], the system named is Plasmodium vinckei petteri. Briefly: Antiplasmodial activity against Plasmodium vinckei petteri infected in Swiss mouse assessed as inhibition of parasite growth at 100 mg/kg/day, po measured on day 5 postinfection. In kind it is functional, organism-based.
Series [13] deals with Plasmodium vinckei petteri. Briefly: Antiplasmodial activity against Plasmodium vinckei petteri infected in Swiss mouse assessed as recrudescence of malaria at 50 mg/kg/day, ip measured upto day 60 postinfection. The class given is functional, organism-based.
Series [14] has as its system Plasmodium vinckei petteri. Briefly: Antiplasmodial activity against Plasmodium vinckei petteri infected in Swiss mouse assessed as recrudescence of malaria at 100 mg/kg/day, ip measured upto day 60 postinfection. In kind it is functional, organism-based.
The test system of series [15] is Plasmodium vinckei petteri. Briefly: Antiplasmodial activity against Plasmodium vinckei petteri infected in Swiss mouse assessed as recrudescence of malaria at 5 mg/kg/day, ip measured upto day 60 postinfection. In kind it is functional, organism-based.
The subject of series [16] is Plasmodium vinckei petteri. Briefly: Antiplasmodial activity against Plasmodium vinckei petteri infected in Swiss mouse assessed as survival at 10 mg/kg, ip treated 4 days before infection measured on day 6 postinfection. In kind it is functional, organism-based. The arrangement: dose 10 mg/kg.
In series [17] the test system is Plasmodium vinckei petteri. Briefly: Antiplasmodial activity against Plasmodium vinckei petteri infected in Swiss mouse assessed as mortality at 100 mg/kg, po treated 4 days after infection measured on day 7 postinfection. In kind it is functional, organism-based. The arrangement: dose 100 mg/kg.
Series [18] deals with Plasmodium vinckei petteri. Briefly: Antiplasmodial activity against Plasmodium vinckei petteri infected in Swiss mouse assessed as survival at 10 mg/kg, ip treated 4 days before infection measured on day 9 postinfection. More on the design: dose 10 mg/kg. In kind it is functional, organism-based.
In series [19] the test system is Mus musculus. Briefly: Toxicity in Swiss mouse at 100 mg/kg/day, po for 4 days measured upto day 30. The class given is organism-based. The arrangement: route oral. The note with it: in vivo, 96 h.
In series [20] the test system is Mus musculus. Briefly: Toxicity in Swiss mouse at 250 mg/kg/day, po for 4 days measured upto day 30. Conditions: in vivo, 96 h. The class given is organism-based. The arrangement: route oral.
Series [21] relates to Mus musculus. Briefly: Toxicity in Swiss mouse at 500 mg/kg/day, po for 4 days measured upto day 30. In kind it is organism-based. More on the design: route oral. The note with it: in vivo, 96 h.
In series [22] the test system is Mus musculus. Briefly: Toxicity in Swiss mouse at 1000 mg/kg/day, po for 4 days measured upto day 30. Conditions: in vivo, 96 h. More on the design: route oral. In kind it is organism-based.
Series [23] relates to Mus musculus. Briefly: Toxicity in Swiss mouse at 100 mg/kg/day, ip for 4 days measured upto day 30. The class given is organism-based. The arrangement: route intraperitoneal. The note with it: in vivo, 96 h.
Series [24] has as its system Mus musculus. Briefly: Toxicity in Swiss mouse at 250 mg/kg/day, ip for 4 days measured upto day 30. In kind it is organism-based. More on the design: route intraperitoneal. Conditions: in vivo, 96 h.
Series [25] relates to Mus musculus. Briefly: Toxicity in Swiss mouse at 500 mg/kg/day, ip for 4 days measured upto day 30. In kind it is organism-based. More on the design: route intraperitoneal. Conditions: in vivo, 96 h.
Series [26] has as its system Mus musculus. Briefly: Toxicity in Swiss mouse at 1000 mg/kg/day, ip for 4 days measured upto day 30. The class given is organism-based. The arrangement: route intraperitoneal. Conditions: in vivo, 96 h.
The subject of series [27] is Plasmodium falciparum. Briefly: Antiplasmodial activity against Plasmodium falciparum FcM29 assessed as inhibition of parasite growth at 180 nM in presence of 0.87 uM N-acetyl-L-cysteine. The class given is functional, organism-based.
The test system of a further series is Monocyte. Briefly: Antioxidant activity in human Monocyte assessed as reduced in PMA-induced ROS production at 3.3 uM by chemiluminescence assay. In kind it is functional, cell-based.
Series [28] concerns Plasmodium falciparum. Briefly: Antiplasmodial activity against chloroquine-resistant Plasmodium falciparum W2 in presence of mefloquine. In kind it is functional.
In series [29] the test system is Plasmodium falciparum. Briefly: Antiplasmodial activity against chloroquine-resistant Plasmodium falciparum W2 in presence of artemisinin. In kind it is functional.
The subject of series [30] is Plasmodium falciparum. Briefly: Antiplasmodial activity against chloroquine-resistant Plasmodium falciparum W2 in presence of artesunate. The class given is functional.
In series [31] the test system is Plasmodium falciparum. Briefly: Antiplasmodial activity against chloroquine-resistant Plasmodium falciparum W2 in presence of atovaquone. The class given is functional.
Series [32] relates to Plasmodium falciparum. Briefly: Antiplasmodial activity against chloroquine-resistant Plasmodium falciparum W2 assessed as 50% revertant concentration required for chloroquine susceptibility. In kind it is functional.

`OC1(c2ccc(Cl)c(C(F)(F)F)c2)CCN(CCCC(c2ccc(F)cc2)c2ccc(F)cc2)CC1` [PENFLURIDOL]: in the series with Plasmodium falciparum [1], the Activity is 96 ng/mL.

A word on the IC50: it is the concentration that gives 50% inhibition. As a reminder, the inhibition in vivo is the percentage by which the read-out fell short of the control. On to `O=c1oc2c(O)c(O)cc3c(=O)oc4c(O)c(O)cc1c4c23` [ELLAGIC ACID], for which the IC50 in the series with Plasmodium falciparum [2] was 330 nM; in the series with Plasmodium falciparum [3], 105 nM; in the series with Plasmodium falciparum [4], 300 nM; with Plasmodium falciparum [5], 330 nM; in the series on Plasmodium falciparum [6] it was 180 nM. Also, the Activity entry in the series on Vero, with MRC5, in the series on KB, in the series with Mus musculus [19], in the series with Mus musculus [20] and in the series with Mus musculus [21] was “Non-toxic” in each case. Besides, the Activity result in the series on Mus musculus [22] is “Non-toxic”; in the series on Mus musculus [23] it was “Non-toxic”; in the series on Mus musculus [24], “Non-toxic”; with Mus musculus [25], “Non-toxic”; with Mus musculus [26], “Non-toxic”; with Plasmodium falciparum [1] it was 5 ng/mL. In addition, the FIC50 in the series with Plasmodium falciparum [7] was found to be 0.63; in the series on Plasmodium falciparum [28], 0.64; in the series with Plasmodium falciparum [29], 1.26; with Plasmodium falciparum [30] it was 0.57; with Plasmodium falciparum [31] it was 0.53. The inhibition in vivo at 50 mg/kg/day in series [8] stood at 100%. Besides, the inhibition in vivo at 100 mg/kg/day in [9] is 100%. In addition, the result in [10], in series [11], in series [12], in series [13], in series [14] and in [15] was Active. The result (in series [16]; in [18]; in the series with Monocyte) was Active. In addition, the result (in series [17]; in the series with Plasmodium falciparum [27]) was inactive.

For the molecule `COc1ccc(CCN(C)CCCC(C#N)(c2ccc(OC)c(OC)c2)C(C)C)cc1OC` (stereo unspecified) [VERAPAMIL], the Activity in the series on Plasmodium falciparum [32] amounted to 0.31 µM.

On to `C[C@@H]1CC[C@H]2[C@@H](C)C(=O)O[C@@H]3O[C@@]4(C)CC[C@@H]1[C@]32OO4` [ARTEMISININ], for which the IC50 in the series on Plasmodium falciparum [2] is 12.5 nM; in the series on Plasmodium falciparum [3], 13.5 nM; with Plasmodium falciparum [5], 13.3 nM; in the series with Plasmodium falciparum [6], 12.2 nM.
